ChEMBL document CHEMBL4495565, “Cytopathic SARS-Cov2 screening on VERO-E6 cells in a large repurposing effort” (2020)
Values joined by “and” are separate entries in the source; they are usually repeats but may differ in a detail not shown here. Equal values may be shown once. Where a name gives a salt, the structure may show the parent alone. Square brackets hold non-standard residues; d marks the D form. Peptide text beside a SMILES is read from it. * marks the point of attachment. dPhe(4-NHCONH2) = NC(=O)Nc1ccc(C[C@@H](N)C(=O)O)cc1; Dihydroorotyl(S) = O=C1C[C@@H](C(=O)*)NC(=O)N1; dPhe(4-Cl) = N[C@H](Cc1ccc(Cl)cc1)C(=O)O; Phe(4-NH2) = Nc1ccc(C[C@H](N)C(=O)O)cc1; d2Nal = N[C@H](Cc1ccc2ccccc2c1)C(=O)O; Lys(iPr) = CC(C)NCCCC[C@H](N)C(=O)O; d3Pal = N[C@H](Cc1cccnc1)C(=O)O

Test system: SARS-CoV-2
Assay: microbe, parasite or virus in culture
Assay type: functional, organism-based, Chlorocebus sabaeus, Vero C1008
Conditions: Severe acute respiratory syndrome coronavirus 2, Vero C1008, 48 h

Structure (SMILES)	IC50
Cc1ccc(Oc2nc3cc(-c4ccc(-c5ccccc5)cc4)c(Cl)cc3[nH]2)cc1C(=O)O	> 33 µM
Cc1cc([N+](=O)[O-])ccc1NS(=O)(=O)c1cc(Cl)ccc1Cl	> 33 µM
CC(=O)N[C@H](Cc1ccc2ccccc2c1)C(=O)N[C@H](Cc1ccc(Cl)cc1)C(=O)N[C@H](Cc1cccnc1)C(=O)N[C@@H](CO)C(=O)N[C@@H](Cc1ccc(NC(=O)[C@@H]2CC(=O)NC(=O)N2)cc1)C(=O)N[C@H](Cc1ccc(NC(N)=O)cc1)C(=O)N[C@@H](CC(C)C)C(=O)N[C@@H](CCCCNC(C)C)C(=O)N1CCC[C@H]1C(=O)N[C@H](C)C(N)=O [DEGARELIX] (Ac-[d2Nal][dPhe(4-Cl)][d3Pal]S[Phe(4-NH2)](Dihydroorotyl(S))[dPhe(4-NHCONH2)]L[Lys(iPr)]P[dA]-NH2)	20.7 µM
c1ccc(-c2ccc(CNc3nc(-c4ccccn4)nnc3-c3ccccc3)cc2)cc1	31.9 µM
CC[n+]1c(-c2ccccc2)c2cc(N)ccc2c2ccc(N)cc21 [HOMIDIUM]	> 33 µM
Cc1ncc(NC(=O)c2ccc(CN3CCN(C)CC3)c(C(F)(F)F)c2)cc1Nc1nccc(-c2cccnc2)n1 [FLUMATINIB]	> 33 µM
CCN1CCN(Cc2ccc(-c3cc4c(N[C@H](C)c5ccccc5)ncnc4[nH]3)cc2)CC1 [AEE-788]	3.94 µM
CC(C)(C)c1cc(/C=C(\C#N)C(N)=S)cc(C(C)(C)C)c1O [TYRPHOSTIN AG 879]	> 33 µM
Cc1c(O)cccc1C(=O)NC(CSc1ccccc1)C(O)CN1CC2CCCCC2CC1C(=O)NC(C)(C)C (stereo not given)	14.3 µM
CN1[C@@H]2CC[C@H]1C[C@@H](OC(=O)c1cc(Cl)cc(Cl)c1)C2 [BEMESETRON]	> 33 µM
Nc1c(C(=O)NCc2ccco2)c2nc3ccccc3nc2n1CCN1CCCCC1	31.2 µM
O=C1OC2(c3ccc(O)cc3Oc3cc(O)ccc32)c2ccccc21 [FLUORESCEIN]	0.67 µM
CC(C)C(=O)OCC(=O)[C@@]12O[C@H](C3CCCCC3)O[C@@H]1C[C@H]1[C@@H]3CCC4=CC(=O)C=C[C@]4(C)[C@H]3[C@@H](O)C[C@@]12C [CICLESONIDE]	> 33 µM
Cc1cc(N2C[C@@H](C)N[C@@H](C)C2)ncc1-c1ccc(-c2nc3c(ccn3C)c(=O)[nH]2)cc1	> 33 µM
CCc1c(-c2ccc3[nH]ncc3c2)cnc(N)c1-c1ccc(O)cc1	> 33 µM
C#CCC(Cc1cnc2nc(N)nc(N)c2n1)c1ccc(C(=O)N[C@@H](CCC(=O)O)C(=O)O)cc1 (stereo not given in full) [PRALATREXATE]	0.06 µM
Nc1cc2c3ccccc3ccc2c2ccccc12	11.6 µM
CCCCn1c(NC(=O)c2cccs2)c(C#N)c2nc3ccccc3nc21	19.7 µM
CCN1CCC(n2cc(CNc3cc(Cl)c4ncc(C#N)c(Nc5ccc(F)c(Cl)c5)c4c3)nn2)CC1	16.6 µM
CC[C@@]1([C@H]2O[C@H]([C@H]3O[C@@](O)(CO)[C@H](C)C[C@@H]3C)C[C@H]2C)CC[C@H]([C@@]2(C)CC[C@]3(C[C@H](O)[C@@H](C)[C@@H]([C@H](C)[C@H](OC)[C@@H](C)C(=O)O)O3)O2)O1 [MONENSIN SODIUM]	3.18 µM
O=C1C(=Cc2cccnc2)C(=O)c2ccccc21	> 33 µM

Same assay, conditions: vero c1008

Structure (SMILES)	IC50
COc1c(C)c2c(c(O)c1C/C=C(\C)CCC(=O)O)C(=O)OC2 [MYCOPHENOLIC ACID]	3.43 µM and 11.1 µM and > 33 µM

Test system: not listed separately
Assay: in vitro
Conditions: chlorocebus sabaeus, VERO-E6 cells (Vero C1008), uninfected, CC50

Structure (SMILES)	CC50 at 48 h
Nc1nc(N)c2nc(CNc3ccc(C(=O)N[C@@H](CCC(=O)O)C(=O)O)cc3)cnc2n1 [AMINOPTERIN]	0.03 µM
Cc1ccc(Oc2nc3cc(-c4ccc(-c5ccccc5)cc4)c(Cl)cc3[nH]2)cc1C(=O)O	0.03 µM
CN1CCN(CC/C=C2\c3ccccc3Sc3ccc(S(=O)(=O)N(C)C)cc32)CC1	> 33 µM
Cc1cc([N+](=O)[O-])ccc1NS(=O)(=O)c1cc(Cl)ccc1Cl	16.6 µM
Cc1[nH]c(/C=C2\C(=O)Nc3ccc(S(=O)(=O)Cc4c(Cl)cccc4Cl)cc32)c(C)c1C(=O)N1CCC[C@@H]1CN1CCCC1 [PHA-665752]	> 33 µM
Cc1ccc(C(=O)Nc2cccc(C(F)(F)F)c2)cc1Nc1nc(-c2cccnc2)nc2c1cnn2C	0.07 µM
CC(C)(O)CNc1ncc(-c2ccnc(Nc3ccnc(Cl)c3)n2)c(CC2CC2)n1	26.8 µM
CC(=O)N[C@H](Cc1ccc2ccccc2c1)C(=O)N[C@H](Cc1ccc(Cl)cc1)C(=O)N[C@H](Cc1cccnc1)C(=O)N[C@@H](CO)C(=O)N[C@@H](Cc1ccc(NC(=O)[C@@H]2CC(=O)NC(=O)N2)cc1)C(=O)N[C@H](Cc1ccc(NC(N)=O)cc1)C(=O)N[C@@H](CC(C)C)C(=O)N[C@@H](CCCCNC(C)C)C(=O)N1CCC[C@H]1C(=O)N[C@H](C)C(N)=O [DEGARELIX] (Ac-[d2Nal][dPhe(4-Cl)][d3Pal]S[Phe(4-NH2)](Dihydroorotyl(S))[dPhe(4-NHCONH2)]L[Lys(iPr)]P[dA]-NH2)	> 33 µM
c1ccc(-c2ccc(CNc3nc(-c4ccccn4)nnc3-c3ccccc3)cc2)cc1	0.02 µM
Nc1nc2c(ncn2[C@@H]2O[C@H](CO)[C@@H](O)[C@H]2O)c(=S)[nH]1 [THIOGUANOSINE]	> 33 µM
Nc1nc(NC[C@H]2CC[C@H](CNS(=O)(=O)c3cccc4ccccc34)CC2)nc2ccccc12 [CGP-71683A]	4.38 µM
CC[n+]1c(-c2ccccc2)c2cc(N)ccc2c2ccc(N)cc21 [HOMIDIUM]	2.04 µM
Cc1ncc(NC(=O)c2ccc(CN3CCN(C)CC3)c(C(F)(F)F)c2)cc1Nc1nccc(-c2cccnc2)n1 [FLUMATINIB]	> 33 µM
O=S(=O)(NCC1CC1)c1ccc(Nc2nccc(N3CCCc4cc(O)ccc43)n2)cc1	0.74 µM
O=C(O)Cc1cccc(OCCCN(Cc2cccc(C(F)(F)F)c2Cl)CC(c2ccccc2)c2ccccc2)c1	> 33 µM
CCN1CCN(Cc2ccc(-c3cc4c(N[C@H](C)c5ccccc5)ncnc4[nH]3)cc2)CC1 [AEE-788]	> 33 µM
CC(C)(C)c1cc(/C=C(\C#N)C(N)=S)cc(C(C)(C)C)c1O [TYRPHOSTIN AG 879]	> 33 µM
Cc1c(O)cccc1C(=O)NC(CSc1ccccc1)C(O)CN1CC2CCCCC2CC1C(=O)NC(C)(C)C (stereo not given)	> 33 µM
CN1[C@@H]2CC[C@H]1C[C@@H](OC(=O)c1cc(Cl)cc(Cl)c1)C2 [BEMESETRON]	0.02 µM
CC(C)c1cnn2c(NCc3ccccc3)cc(NCCCCCCN)nc12	> 33 µM
Nc1c(C(=O)NCc2ccco2)c2nc3ccccc3nc2n1CCN1CCCCC1	> 33 µM
O=C1OC2(c3ccc(O)cc3Oc3cc(O)ccc32)c2ccccc21 [FLUORESCEIN]	> 33 µM
C[C@@H]1C[C@@H]([C@H](O)CC2CC(=O)NC(=O)C2)C(=O)[C@@H](C)C1 [CYCLOHEXIMIDE]	10.2 µM

Structure (SMILES)	CC50 at 48 h
C[C@H]1CCC/C=C/[C@@H]2C[C@H](O)C[C@H]2[C@H](O)/C=C/C(=O)O1 [BREFELDIN A]	0.06 µM
Cc1cc(N2C[C@@H](C)N[C@@H](C)C2)ncc1-c1ccc(-c2nc3c(ccn3C)c(=O)[nH]2)cc1	7.14 µM
CCc1c(-c2ccc3[nH]ncc3c2)cnc(N)c1-c1ccc(O)cc1	> 33 µM
Cn1nc(C(C)(C)C)cc1C(=O)N[C@@H](Cc1cccc(Cl)c1)C(=O)NCC#N	0.03 µM
CCN(CC)CCOc1ccc2c(c1)C(=O)c1cc(OCCN(CC)CC)ccc1-2 [TILORONE]	3.08 µM
Nc1cc2c3ccccc3ccc2c2ccccc12	> 33 µM
CN(C)C(=O)C(CCN1CCC(O)(c2ccc(Cl)cc2)CC1)(c1ccccc1)c1ccccc1 [LOPERAMIDE]	> 33 µM
COc1cc2ncnc(Nc3cccc(Br)c3)c2cc1OC	13.2 µM
COc1cc2c(NC3CCN(C(C)C)CC3)nc(N3CCC(F)(F)CC3)nc2cc1OCCCN1CCCC1	> 33 µM
Cn1c(Nc2ccc(C(F)(F)F)cc2)nc2cc(Oc3ccnc(-c4ncc(C(F)(F)F)[nH]4)c3)ccc21 [RAF-265]	9.19 µM
Oc1c(Cl)cc(Cl)cc1Sc1cc(Cl)cc(Cl)c1O [BITHIONOL]	9.94 µM
CC(C)(C)NCc1ccc(Nc2ccnc3cc(Cl)ccc23)cc1O [GSK-369796]	12.4 µM
Nc1ncc(-c2ccnc(Nc3ccncc3)n2)c(CC2CC2)n1	2.11 µM
O=C1Nc2cc(Br)ccc2/C1=C1/Nc2ccccc2/C1=N\O [6BIO]	> 33 µM
N#Cc1cccc(C#N)c1-c1nc2c3ccc(Cl)cc3c3ccccc3c2[nH]1	> 33 µM
Cn1cc(-c2ccncc2)c(-c2ccc(OCc3ccc4ccccc4n3)cc2)n1 [MARDEPODECT]	> 33 µM
COc1ccccc1[C@H](Cn1c(=O)n(C(C)(C)C(=O)O)c(=O)c2c(C)c(-c3ncco3)sc21)OC1CCOCC1 [FIRSOCOSTAT]	0.11 µM
COc1cc(NCc2ccc3nc(N)nc(N)c3c2C)cc(OC)c1OC [TRIMETREXATE]	1.99 µM
CCCCN(CCCC)CCC(O)c1cc2c(Cl)cc(Cl)cc2c2cc(C(F)(F)F)ccc12 (stereo not given) [HALOFANTRINE]	> 33 µM
Cc1cccc(Nc2nc(-c3ccncc3)cs2)c1	31.5 µM
Cc1cc(O[C@@H](CCC(F)(F)F)c2ccc(C(=O)NCCC(=O)O)cc2)cc(C)c1-c1ccc(C(C)(C)C)cc1 [ADOMEGLIVANT]	> 33 µM
Nc1ccc(C(=O)Nc2cccc(-c3nc(N4CCOCC4)c4oc5ncccc5c4n3)c2)cn1	0.01 µM
c1cncc(CN2CCC(n3ncc4c(N5CCOCC5)nc(-c5ccc6[nH]ccc6c5)nc43)CC2)c1	9.55 µM

Structure (SMILES)	CC50 at 48 h
CN1CCN(CCCN2c3ccccc3Sc3ccc(C(F)(F)F)cc32)CC1 [TRIFLUOPERAZINE HYDROCHLORIDE]	> 33 µM
CC(C)(Sc1cc(C(C)(C)C)c(O)c(C(C)(C)C)c1)Sc1cc(C(C)(C)C)c(OC(=O)CCC(=O)O)c(C(C)(C)C)c1 [SUCCINOBUCOL]	10.2 µM
COc1ccc2cc1Oc1ccc(cc1)C[C@H]1c3cc(c(OC)cc3CCN1C)Oc1c(OC)c(OC)cc3c1[C@H](C2)N(C)CC3 [FANCHININ]	> 33 µM
COc1cc2c(N3CCN(C(=O)Nc4ccc(OC(C)C)cc4)CC3)ncnc2cc1OCCCN1CCCCC1 [TANDUTINIB]	> 33 µM
CC1(N2CCC(n3c([C@@H]4CCCNC4)nc4ccccc43)CC2)CCCCCCC1	> 33 µM
CC(C)COCC(CN(Cc1ccccc1)c1ccccc1)N1CCCC1 (stereo not given)	23.4 µM
OCCNC1CCCc2c1[nH]c1ccc(-c3ccccc3)cc21 (stereo not given)	> 33 µM
CCN(CC)CCO[C@H]1CC[C@@]2(C)C(=CC[C@@H]3[C@@H]2CC[C@]2(C)C(=O)CC[C@@H]32)C1	3.43 µM
O=C(CCCN1CCC2(CC1)C(=O)N(Cc1cccc(F)c1)CN2c1ccccc1)c1ccc(F)cc1	27.4 µM
Nc1ncnc2c1ncn2[C@@H]1CC[C@@H](O)[C@H]1O	15.7 µM
O=C(NCCN1CCC2(CC1)C(=O)NCN2c1cccc(F)c1)c1ccc2ccccc2c1	> 33 µM
Cc1c(O)cccc1C(=O)N[C@@H](CSc1ccccc1)[C@H](O)CN1C[C@H]2CCCC[C@H]2C[C@H]1C(=O)NC(C)(C)C [NELFINAVIR MESYLATE]	> 33 µM
O=C(Nc1ccc(Cl)cc1)Nc1ccc(Cl)c(Cl)c1 [TRICLOCARBAN]	3.08 µM
O=C(Nc1ccc(Cl)c(Cl)c1)Nc1ccc(Cl)c(Cl)c1	> 33 µM
Cc1ccc(NC(=O)c2ccc(CN3CCN(C)CC3)cc2)cc1Nc1nc(-c2cccnc2)cs1 [MASITINIB]	> 33 µM
O=[N+]([O-])c1ccc(NN=Cc2sc(N3CCOCC3)nc2-c2ccccc2)c(S(=O)(=O)Nc2ccccc2Cl)c1	0.43 µM
Nc1ccc2cc3ccc(N)cc3nc2c1 [PROFLAVINE]	2.67 µM
COc1ccc2c(c1)[C@]1(C[C@H]1c1ccc3c(/C=C/c4ccc(CN5C[C@@H](C)O[C@@H](C)C5)cc4)n[nH]c3c1)C(=O)N2 [OCIFISERTIB]	> 33 µM
N=C(Nc1ccc(I)cc1)NC1C2CC3CC(C2)CC1C3 (stereo not given)	> 33 µM
Cc1nc(N)nc(N)c1-c1ccc(Cl)c(Cl)c1 [METOPRINE]	0.12 µM
CC(C)N1CCN(c2ccc(C(=O)c3c(-c4ccc(O)cc4)sc4cc(O)ccc34)cc2)CC1	> 33 µM

Same assay, conditions: chlorocebus sabaeus, vero c1008, CC50

Structure (SMILES)	CC50 at 48 h
CCN(CC)CCOc1ccc(C(=C(Cl)c2ccccc2)c2ccccc2)cc1 [CLOMIPHENE CITRATE]	> 33 µM
